Measurements: publication PMC10732398 (PLOS Pathogens, 2023)

What was measured:
[1] = tested on: ⍺4β7 transfected 293T cells; test: Flow cytometry: staining of 293T cells co-transfected with ⍺4 and β7 expression vectors; format: binding; conditions: PE-labelled ligand, Fig 1C
Description: The FRET/FLIM results described above indicate a direct interaction between CD4 and ⍺4β7. […] To this end we employed a fluorescently labelled soluble dodecameric CD4 Ig fusion protein, termed D1D2-Ig⍺tp, that includes the two N-terminal Ig-like domains of CD4 (D1D2, aa 1–180), followed by IgG1 CH2 and CH3 domains, followed by the 18 aa tail-piece domain of IgA (⍺tp). In this oligomer, 12 D1D2-Igs are arranged in a disulphide linked daisy-chain (Fig 1A). Primary CD4^+ T cells, some of which express ⍺4β7, were reacted with D1D2-Ig⍺tp and analyzed by flow-cytometry. A second oligomeric Ig fusion protein, MicA-Ig⍺tp, which includes the two N-terminal domains of MicA, was employed as a specificity control. […] MAdCAM-Ig was employed as a positive control. […] We conclude that an oligomeric soluble CD4 that includes only its two N-terminal domains can bind to ⍺4β7 in a specific way.
Fig 1 Binding of soluble CD4 to ⍺4β7 on CD4^+ T cells. (A) Schematic of D1D2-Ig⍺tp. […] X-axis indicates geometric mean fluorescence intensity (gMFI). […]
Cells were stained with fluoresceine conjugated mAbs or recombinant proteins using standard procedures preceded by Fc receptor blocking with human IgG. […] Data were acquired using a FACSCanto II (BD Biosciences) and analyzed with FlowJo software (BD Biosciences). […]

[2] = tested on: ⍺4β7 on primary CD8^+ T cells; test: Flow cytometry: FAM-conjugated pCD4^165-178 binding to RA-treated primary CD8^+ T cells; parameters: species or system human; conditions: FAM-Ttds-labelled peptide 1.25 μg/200,000 cells in 100 μl; presence or absence of Mn^++
Description: To further investigate the interaction between pCD4^165-178 and ⍺4β7 we attached a fluorescein dye to its amino terminus via a trioxatridecan-succinamic acid (Ttds) linker (Fig 5A). A scrambled pCD4^165-178 was employed as a control. […] FIB504 and vedolizumab inhibited binding by ~50%. This inhibition pattern resembles the one we obtained when inhibiting D1D2-Ig⍺tp with the same antagonists (Fig 3). We conclude that the CD4 D2 G β-strand binds directly to the headpiece region of ⍺4β7 in a cation dependent manner. Support for this conclusion, in the form of site directed mutagenesis within the D2 G β-strand is provided below.
Fig 5 Direct binding of pCD4^165-178 to ⍺4β7 on primary T cells. (A) Sequence of FAM -conjugated pCD4^165-178 and a scrambled derivative (FAM-scr pCD4^165-178). (B) Flow-cytometry derived histogram of pCD4^165-178 binding to RA -cultured CD8^+ T cells. pCD4^165-178 in the presence (green), or absence of Mn^++(black). Unstained cells are shown (grey). (C) Binding of pCD4^165-178 and its scrambled derivative to CD8^+ T cells in the presence of MnCl2 as in panel B, and in the presence of ⍺4 and ⍺4β7 antagonists, as indicated. Y-axis indicates % cells bound. Error bars represent standard error from 3 independent experiments.
Cells were stained with fluoresceine conjugated mAbs or recombinant proteins using standard procedures preceded by Fc receptor blocking with human IgG. Buffers used were 10 mM HEPES 150 mM NaCl (HBS Buffer) with 100 μM CaCl2. 1 mM MnCl2 was also included, unless otherwise specified. Buffer without divalent cations included 0.1 mM EDTA. Unlabeled mAb or protein inhibitors were preincubated with cells or proteins at a 5X molar excess for 15 min on ice. FAM labeled peptides were used at 1.25 μg/ 200,000 cells in a 100 μl volume. Data were acquired using a FACSCanto II (BD Biosciences) and analyzed with FlowJo software (BD Biosciences). Plotted MFI values represent absolute values.

Substance | binding to ⍺4β7 transfected versus untransfected 293T cells (in words) [1] | binding of FAM-labelled peptide to RA-treated CD8^+ T cells (in words) [2]
MAdCAM-Ig: recombinant MAdCAM-1 Ig fusion, R&D Systems [reference compound] | bound preferentially to ⍺4β7 transfected cells | –
QKKVEFKIDIVVLA [CD4 P42, linear CD4 D2 peptide, residues 165-178, G β-strand] | – | reacted strongly in the presence, but not in the absence of Mn^++
